The text below walks through data of patent US20160333419A1, “GENE SIGNATURES ASSOCIATED WITH SENSITIVITY TO MDM2 INHIBITORS” (DAIICHI SANKYO COMPANY, LIMITED, priority 2014, published 2016).

Some results are limits rather than exact numbers.

By IC50 is commonly meant the concentration needed to halve the response being measured.

The subject of test [1] is multi-cancer cell line panel. Kind of test: OncoPanel cytotoxicity assay, whole panel summary. In kind it is cell-based, human. As for the experimental part:
This Example describes an evaluation of the effect of a representative small molecule MDM2i on the growth of cells in a multi-cancer cell line panel. In this Example, the MDM2 inhibitors used were Compound A and Compound B p-toluenensulfonate. The panel included 250 human cancer cell lines (OncoPanel™, Ricerca Biosciences, Painesville, Ohio) that were evaluated in a high content drug screening analysis. The relative IC50 values for the cell lines were determined.
Cells were grown in RPMI 1640, 10% FBS, 2 mM L-alanyl-L-Glutamine, 1 mM Na Pyruvate, or a special medium in a humidified atmosphere of 5% CO2 at 37° C. Cells were seeded into 384-well plates and incubated in a humidified atmosphere of 5% CO2 at 37° C. Test compounds were added 24 hours post cell seeding. At the same time, a time zero, untreated cell plate was generated as a control. After a 72 hour incubation period, cells were fixed and stained with nuclear dye to allow visualization of nuclei.
Compounds were serially diluted 3.16-fold and assayed over 10 concentrations of inhibitor in a final assay concentration of 0.1% DMSO from the highest test concentration specified in the sample information chapter. Automated fluorescence microscopy was carried out using a GE Healthcare InCell Analyzer 1000, and images were collected with a 4× objective. Twelve bit tiff images were acquired using the InCell Analyzer 1000 3.2 and analyzed with Developer Toolbox 1.6 software.
Cell proliferation was measured by the signal intensity of the incorporated nuclear dye. The cell proliferation assay output is referred to as the relative cell count. To determine the cell proliferation end point, the cell proliferation data output is transformed to percent of control (POC) using the following formula: […]
Relative cell count IC50 (IC50) is the test compound's concentration that produces 50% of the cell proliferation inhibitory response or 50% cytotoxicity level. IC50 values were calculated using nonlinear regression to fit data to a sigmoidal 4 point, 4 parameter One-Site dose response model, where: y (fit)=A+[(B−A)/(1+((C/x)̂D))]. […]

Another test deals with IMR-32. The test is described as follows: OncoPanel cytotoxicity assay. The format is cell-based. To be noted: Homo sapiens, 72 hour incubation. In a few lines:
(§1)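 Cells grown in RPMI 1640 with 10% FBS (or a special medium) at 37° C, 5% CO2 were treated 24 hours after seeding for 72 hours with 10 concentrations (3.16-fold dilutions, 0.1% DMSO final). Nuclei were dye-stained and imaged; IC50 was fit from percent of control relative cell count.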

For a further test, the system named is BT-483. The test is described as follows: OncoPanel cytotoxicity assay. In kind it is cell-based. To be noted: Homo sapiens, 72 hour incubation. In a few lines:
as §1

The next test has as its system ZR-75-1. Kind of test: OncoPanel cytotoxicity assay. The format is cell-based. To be noted: Homo sapiens, 72 hour incubation. Summed up:
as §1

A further test deals with CAL-54. Kind of test: OncoPanel cytotoxicity assay. To be noted: Homo sapiens, 72 hour incubation. The format is cell-based. In a few lines:
as §1

A further test deals with MDA-MB-175-VII. The test is described as follows: OncoPanel cytotoxicity assay. Conditions: Homo sapiens, 72 hour incubation. In kind it is cell-based. Summed up:
as §1

The test system of a further test is WM-115. Kind of test: OncoPanel cytotoxicity assay. In kind it is cell-based. Conditions: Homo sapiens, 72 hour incubation. Summed up:
as §1

In the next test the test system is VCaP. Kind of test: OncoPanel cytotoxicity assay. Conditions: Homo sapiens, 72 hour incubation. In kind it is cell-based. In a few lines:
as §1

A further test deals with T84. Kind of test: OncoPanel cytotoxicity assay. In kind it is cell-based. Conditions: Homo sapiens, 72 hour incubation. In a few lines:
as §1

Another test concerns CRO-AP5. The test is described as follows: OncoPanel cytotoxicity assay. The format is cell-based. To be noted: Homo sapiens, 72 hour incubation. In a few lines:
as §1

In the next test the test system is DMS273. Kind of test: OncoPanel cytotoxicity assay. In kind it is cell-based. Conditions: Homo sapiens, DMS-273, 72 hour incubation. In a few lines: as §1
A further test concerns NCI-H69. The test is described as follows: OncoPanel cytotoxicity assay. The format is cell-based. Conditions: Homo sapiens, 72 hour incubation. In a few lines: as §1
The test system of a further test is OE19. Kind of test: OncoPanel cytotoxicity assay. The format is cell-based. Conditions: Homo sapiens, 72 hour incubation. In a few lines:
as §1

Another test deals with COR-L105. The test is described as follows: OncoPanel cytotoxicity assay. Conditions: Homo sapiens, 72 hour incubation. In kind it is cell-based. Summed up: as §1
For a further test, the system named is COR-L23. The test is described as follows: OncoPanel cytotoxicity assay. In kind it is cell-based. Conditions: Homo sapiens, 72 hour incubation. Summed up: as §1
The next test deals with OE21. The test is described as follows: OncoPanel cytotoxicity assay. Conditions: Homo sapiens, 72 hour incubation. In kind it is cell-based. Summed up: as §1
The next test deals with OE33. The test is described as follows: OncoPanel cytotoxicity assay. In kind it is cell-based. Conditions: Homo sapiens, 72 hour incubation. In a few lines:
as §1

[2] abbreviates: share of the cell lines of the panel.

With `CC[C@@H]1CNC2(CC2)CN1C(=O)[C@@H]1C[C@@H](F)CN1C(=O)C1=C(C(C)C)N2C(=N[C@@](C)(c3ccc(Cl)nc3)[C@H]2c2ccc(Cl)c(F)c2)S1` [Compound A, [(5R,6S)-5-(4-Chloro-3-fluorophenyl)-6-(6-chloropyridin-3-yl)-6-methyl-3-(propan-2-yl)-5,6-dihydroimidazo[2,1-b][1,3]thiazol-2-yl][(2S,4R)-2-{[(6R)-6-ethyl-4,7-diazaspiro[2.5]oct-7-yl]carbonyl}-4-fluoropyrrolidin-1-yl]methanone], the IC50 in test [1] (Homo sapiens, range over all cell lines of the panel, read-out: Cell line IC50 values ranged) is at least 120 nM; in the test with IMR-32 it was 828 nM; in the test with BT-483 it was 13.2 µM; in the test with ZR-75-1, 1500 nM; with CAL-54, 602 nM; with MDA-MB-175-VII, over 40 µM. Moreover, the IC50 is 564 nM with WM-115, over 40 µM in the test on VCaP, over 40 µM in the test with T84 and 220 nM in the test on CRO-AP5. Also, in test [1] (setting [2]), the “cell lines with IC50 values of <1 μM” value was “Approximately 25%”. The “cell lines with IC50 values of >10 μM” value in test [1] (setting [2]) was “approximately 70%”.
For `CC1(C)CCC2(CC1)N[C@@H](C(=O)N[C@@H]1CC[C@@H](C(N)=O)OC1)[C@H](c1ccnc(Cl)c1F)[C@]21C(=O)Nc2cc(Cl)ccc21` [Compound B, (3′R,4′S,5′R)—N-[(3R,6S)-6-carbamoyltetrahydro-2H-pyran-3-yl]-6″-chloro-4′-(2-chloro-3-fluoropyridin-4-yl)-4,4-dimethyl-2″-oxo-1″,2″-dihydrodispiro[cyclohexane-1,2′-pyrrolidine-3′,3″-indole]-5′-carboxamide], the IC50 with DMS273 was 9.08 µM; in the test on NCI-H69 it was over 10 µM; with OE19, over 10 µM; in the test with COR-L105, 168 nM; in the test with COR-L23, 8.98 µM; in the test on OE21 it was 9.81 µM. The molecule also displayed an IC50 in the test on OE33 of 7.58 µM.
